Measurements from paper PMC4464269, “Potential of acylated peptides to target the influenza A virus” (Beilstein Journal of Organic Chemistry, 2015).
Where “and” joins values, the source holds several entries; their conditions need not be identical. Identical values can stand only once. Ends that are not written are not given here.

What was measured:
[1] = format: physicochemical; settings: for hydrodynamic diameter (DLS): Zetasizer Nano ZS, back scattering 173°
human erythrocytes [2] = assay: Hemolysis assay; format: cell-based; settings: 2% human erythrocytes, 1 h at 37 °C, absorption of the supernatant at 540 nm; titration, three experiments; for C18-s2s above concentrations of 20 µM
Protocol: To assess how strong membrane incorporation of these peptides can perturb membranes we measured their cell lytic activity in a titration experiment with human erythrocytes. […] For EB the same has been reported by Jones et al..
Figure 7 Hemolytic activity of stearylated peptides and EB. 2% human erythrocytes were incubated for one hour with peptides at 37 °C. After centrifugation, the hemolytic activity was assessed by absorption measurement of the supernatant at 540 nm. Error bars indicate the SEM of three titration experiments.
Peptide inhibitors were serially diluted in PBS, mixed with a 2% human erythrocyte solution, and incubated for 1 h at 37 °C. Afterwards, the mix was centrifuged for 10 min at 1500 x g.
Supernatants were measured for absorption at 540 nm representative for hemoglobin release. Buffer absorbance was subtracted from all data points.
Protection from infection assay
Viral infection inhibition assays were performed using an MTS reagent (Promega). 15,000 MDCK II cells were seeded the day before infection. […] Two hours before the readout, 20 µL MTS solution (Promega) was added to each well and put back to 37 °C for the remaining time. Finally, absorbance at 490 nm was measured by a plate reader (Fluostar optima, BMG) and data were normalized to maximum viral cytotoxicity. […]

[3] = test system: Aichi H3N2 virus (X31) mediated hemagglutination of human erythrocytes; format: cell-based, influenza A virus A/Aichi/2/1968 H3N2 (X31)
human erythrocytes [4] = format: cell-based
[5] = test system: infection of MDCK II cells by Aichi H3N2; format: cell-based, influenza A virus A/Aichi/2/1968 H3N2 (X31)
[6] = test system: infection of MDCK II cells by Rostock H7N1; format: cell-based, influenza A virus A/FPV/Rostock/34 H7N1
[7] = test system: Rostock H7N1 virus mediated hemagglutination of turkey erythrocytes; format: cell-based, influenza A virus A/FPV/Rostock/34 H7N1
[8] = format: physicochemical; settings: 2 mM in PBS, negative staining with 1% phosphotungstic acid pH 7.4; cryo-TEM gave the same results
Hongkong H5N1 = settings: read-out: IC50 against Hongkong H5N1; cited from earlier work
Aichi H3N2 = settings: at higher viral titer than used in this paper; ref [14]; read-out: IC50 against Aichi H3N2 in the HAI; cited from earlier work
Protocol: The potential to inhibit binding of influenza viruses to cells can be investigated by the well-established hemagglutination inhibition assay (HAI). All peptides, but the control peptide C18-rs2s were able to inhibit Aichi H3N2 virus mediated hemagglutination already at low micromolar concentrations (Table 2). For EB an IC50 of 20 µM against Aichi H3N2 in the HAI has been determined, however at higher viral titer than we used.

[9] = 20 µM in PBS (10 mM, pH 7.4), volume distribution profile

Row | Substance | volume size distribution (DLS), in words ([1]; 20 µM in PBS (10 mM, pH 7.4)) | hemolytic activity (human erythrocytes [2]) | KiHAI (Aichi H3N2) [3] | KiA (human erythrocytes [4]) [µM] | PDI (DLS) ([1]; 20 µM in PBS (10 mM, pH 7.4)) | hydrodynamic diameter (DLS) [1, 9] [nm] | enhancement of inhibitory potential in infection inhibition compared with unmodified PeB^GF, Aichi H3N2 [5] | IC50 ([5]; read-out: IC50, infection inhibition of MDCK cells by Aichi H3N2) [µM] | share of bigger supramolecular structures (DLS) [1, 9] | size of supramolecular aggregates (DLS) ([1]; concentration of 100 µM) [µm] | enhancement of inhibition in infection inhibition compared with unmodified PeB^GF, Rostock H7N1 [6] | IC50 ([6]; read-out: IC50, infection inhibition of MDCK cells by Rostock H7N1) [µM] | KiHAI (Rostock H7N1) [7] | decrease of the KiHAI value compared with unmodified PeB^GF, H7N1 [7] [fold] | decrease of the KiHAI value compared with unmodified PeB^GF, Aichi H3N2 [3] [fold] | morphology of assemblies (TEM) [8] | IC50 (Hongkong H5N1) [µM] | IC50 (Aichi H3N2) [µM]
1 | C17H35CO-ARLPRTMV-CONH2 [C18-s2s, stearylated sialic acid mimetic peptide (Matsubara et al. 2010)] | multimodal | extremely hemolytic | 0.8 ± 0.5 µM | 7.0 ± 0.8 | – | – | – | – | – | – | – | – | – | – | – | – | – | –
2 | C17H35CO-VMTRPLRA-CONH2 [C18-rs2s, reference compound] | – | – | no effect | 4.1 ± 2.1 | 0.328 | 818.8 | – | – | – | – | – | – | – | – | – | – | – | –
3 | C17H35CO-XXXXXXXXXXXXXXX-CONH2 [C18-PeB^GF, stearylated HA antibody derived antiviral peptide] | – | – | 1.2 ± 0.0 µM | 100.0 ± 0.0 | 0.454 | 16.7 | approx. 5 fold | 5.9 | 10–15% | > 1 | did not increase | 84 | 2.8 µM and 2.8 ± 0.9 µM | 10 | 20 | fibrillar supramolecular arrangement being up to several hundred nanometers long | – | –
4 | RRKKAAVALLPAVLLALLAP-NH2 [EB] | – | – | 1.6 ± 0.3 µM | 8.6 ± 7.0 | – | – | – | – | – | – | – | – | – | – | – | – | 4.5 | 20
